Publication PMC8229286, “Pharmacokinetics-Driven Evaluation of the Antioxidant Activity of Curcuminoids and Their Major Reduced Metabolites—A Medicinal Chemistry Approach” (Molecules, 2021)
Converted amounts (≈) assume the structure as drawn. Where two headings read alike, the source gives them in different places.

What was measured:
[1] = DPPH free radical scavenging assay; settings: 30 min, absorbance 550 nm; average ± S.E.M
Protocol: The DPPH free radical scavenging assay was performed based on the method of Fukumoto et al. with some modification. The measurement was performed on a 96-well microplate. Microdilution series of the samples (0.2 mg/mL stock solution, dissolved in HPLC grade MeOH) were made starting with 100 μL. To each well 100 μL of DPPH reagent (100 μM in HPLC grade MeOH) was added to gain the final volume of 200 μL. The microplates were kept in dark, and the absorbance was measured after 30 min at 550 nm using a FluoStar Optima plate reader (software version 2.20R2, BMG Labtech, Ortenberg, Germany). Methanol was used as blank. The scavenging activity was calculated as Inhibition (%) = (A0 − As)/A0 × 100, and EC50 values were calculated by Graph Pad Prism (GraphPad Software, Inc., La Jolla, CA, USA).

[2] = AAPH assay (oxygen radical absorbance capacity, ORAC); settings: concentration for 50% antioxidant capacity; average ± S.E.M
Protocol: Antioxidant capacity measurement was carried out on 96-well microplates, based on oxygen radical absorbance capacity (ORAC) assay. A 20 μL aliquot of the sample (6 dilutions with buffer from 10 μg/mL stock solution dissolved in phosphate buffer, containing 1% MeOH), 120 μL of fluorescein (dissolved in phosphate buffer, pH = 7.4, 70 nM final concentration), and 60 μL of 2,2′-azobis(2-methylpropionamidine) dihydrochloride (AAPH, dissolved in phosphate buffer, pH = 7.4, 12 mM final concentration) were pipetted into each well. Each measurement was performed twice in duplicates. Each plate contained six dilutions of trolox as the standard, and phosphate buffer as blank. Flourescence (excitation at 485 nm and emission at 520 nm) was measured over a 3 h period with 1.5-min cycle intervals by a FluoStar Optima plate-reader (BMG Labtech GmbH). The antioxidant capacity was calculated for each concentration with the following formula: antioxidant capacity = (AUCAntioxidant − AUCBlank)/AUCBlank × 100 where AUC is the area under curve obtained for the sample and blank assays. Based on the linear correlation between the concentration of the samples and the antioxidant capacity, IC50 values could be obtained, which define the concentration (in µM) of each compound required to have 50% antioxidant capacity defined by the previous equation.

GI-PAMPA permeability = settings: for GI-PAMPA MR (membrane retention) / GI-PAMPA Pe: PBS pH 7.4, 37 °C, 4 h; for Papp at 4 h, 100 µM: PAMPA, pH 7.4
Protocol: (§1) BBB and GI permeability was determined by using tissue-specific parallel artificial membrane permeability assay (GI-PAMPA [46], BBB-PAMPA [47]) models. Briefly, a 96-well acceptor plate and a 96-well filter plate were assembled into a sandwich. The hydrophobic filter material of the 96 well filter plate was coated by the mixture of phosphatidylcholine:cholesterol 2:1 (5 µL, 4 % (w/v) in dodecane: GI-PAMPA) or by porcine brain lipid (PBL) (5 µL, 2.6 % (w/v) in dodecane:hexane 25:75 v/v%: BBB-PAMPA). Subsequently, the acceptor wells at the bottom of the sandwich were filled with 300 µL of 10 mM PBS solution with 5% DMSO adjusted to pH 7.4. The donor wells at the top of the sandwich were hydrated with 150 µL of test compound solution. The test compound solutions were prepared in 100 times dilution. Firstly, a 10 mM stock solution was prepared from the corresponding compound in DMSO, then it was diluted with PBS (pH 6.5: GI-PAMPA or pH 7.4: BBB-PAMPA) to get 5% mixture followed by filtration through a MultiScreen Solubility filter plate. The resulting sandwich was then incubated at 37 °C for 4h. After the incubation, PAMPA sandwich plates were separated and compound concentrations in donor and acceptor solutions were investigated by HPLC-DAD. HPLC analyses were performed using a Shimadzu Prominence Modular HPLC system (Shimadzu Corporation, Kyoto, Japan) on a Kinetex® 2.6mm C18 100 Å LC column (30 × 3 mm) at 45 °C. Mobile phase flow rate was 1.1 mL/min using a gradient of AcN and 0.1% (v/v) formic acid in water (from 5% AcN to 95% in 2.5 min). Chromatograms were recorded at the wavelength of 200–500 nm, integration was carried out at the UVmax of each compound. The applied injection volume was 6 μL.

BBB-PAMPA permeability = settings: for Papp at 4 h, 100 µM: PAMPA
Protocol: as §1

[3] = Kinetic solubility in PBS; settings: for solubility kinetic at 2 h: PBS with 5% (v/v) DMSO, pH 7.4, aqueous with cosolvent or surfactant or cyclodextrin, kinetic from dmso stock; for Kinetic Solubility: after 2 h, at 37 °C in PBS, pH 7.4, mean ± S.E.M, n = 3
Protocol: (§2) Kinetic solubility was tested with 5% (v/v) DMSO as cosolvent in phosphate buffered saline (PBS, 0.01 M phosphate buffer pH 7.4, 0.138 M NaCl, 0.0027 M KCl, without Ca^2+, Mg^2+) at room temperature for 2 h. Chemical stability was tested with 10% (v/v) DMSO as cosolvent in PBS pH 7.4 at 37 °C for 4 h. Metabolic stability was investigated on human liver microsomes (1 mg/mL), which were preincubated with 25 µM test compounds for 5 min at 37 °C in 0.1 M Tris-HCl buffer, pH 7.4 contained 6.67 mM Na-pyrophosphate, 5.56 mM MgCl2, 5.56 mM glucose-6-phosfate, 4.63 U/mL glucose-6-phosphate dehydrogenase. The reaction was initiated by adding preincubated cofactor (37 °C,10 mM NADPH). After 10, 30, and 60 min incubation at 37 °C, the reaction was stopped by adding equal volume of cooled methanol (−20 °C). The samples were centrifuged at 20,000 g for 5 min. The supernatant and all above described test solutions were analyzed by LC-MS/MS. LC-MS analysis was carried out on an Agilent 1200 liquid chromatography system coupled with an 6410 QQQ-MS (Agilent Technologies, Palo Alto, CA, USA). Analysis was on a Cortecs C18 column (150 × 4.6 mm, 2.7 µm, Waters) at 40 °C, with a mobile phase flow rate of 1.45 mL/min. Composition of eluent A was 0.1% (v/v) trifluoroacetic acid (TFA) in water (pH 1.9). A linear gradient of 0–100% B (acetonitrile (AcN) and water in 95:5 (v/v)) was applied at a range of 0–17 min, then 100% B at 17–22 min. The injection volume was set at 20 µL and chromatograms were registered at 220 ± 4 nm. The MSD operating parameters in ESI positive ionization mode were as follows: scan ion mode (100–800 m/z), drying gas temperature 350 °C, nitrogen flow rate 12 L/min, nebulizer pressure 40 psi, quadrupole temperature 100 °C, capillary voltage 4000 V, fragmentor voltage 135 V.

[4] = Chemical stability in PBS pH 7.4; settings: between 0–2 h at 37 °C in PBS, Stable = no chemical change detected during the evaluation time (4 h)
Protocol: as §2

[5] = Metabolic stability in human liver microsomes; settings: for CLint scaled at 25 µM / half-life at 25 µM: human, human liver microsomes, pH 7.4; for Met.stab. in HLM t1/2: human liver microsomes 1 mg/mL, 25 µM compound, 37 °C, mean ± S.E.M, n = 3; for Met.stab. in HLM Cl'int: intrinsic clearance calculated from in vitro t1/2 data in HLM
Protocol: as §2

[6] = pH 7.4
Protocol: as §2

[7] = microsomes
Protocol: as §2

[8] = pH 7.4; remark: listed apart in the source
Protocol: as §1

[9] = Experimental logP in octanol-water and toluene-water systems; settings: for ΔlogPoct_tol: logPo/w − logPtol/w; for logP at 24 h: octanol/water; for logPtol/w: toluene-water, average ± S.E.M, five parallel experiments
Protocol: Lipophilicity measurements of hydrocurcumins were performed by dissolving the compounds in the organic solvents (octanol and toluene) at 1mg/mL concentration and mixing them with water (1:5 and 1:10 ratios, each in five replicates). After 24 h the concentration of the compounds in the aqueous phase were calculated by using a calibration dilution series measured on RP-HPLC system. The concentration of the organic phase was calculated from the concentration of the aqueous phase.

[10] = set-up: method as in PMID 17999464; settings: cited from earlier work

Compound	IC50 [1] [µM]	IC50 [2] [µM]	GI-PAMPA MR (membrane retention) (GI-PAMPA permeability) [%]	GI-PAMPA Pe (GI-PAMPA permeability)	Papp at 4 h, 100 µM (BBB-PAMPA permeability) [×10⁻⁶ cm/s]	BBB-PAMPA MR (membrane retention) (BBB-PAMPA permeability; PBS pH 6.5→pH 7.4, 37 °C, 4 h) [%]	solubility kinetic at 2 h [3] [µM]	Chemical Stability Shelf-Life [4]	CLint scaled at 25 µM [5] [mL/min/kg]	half-life at 25 µM [5] [h]	Papp at 4 h, 100 µM (GI-PAMPA permeability) [×10⁻⁶ cm/s]	also measured
COc1cc(CCC(O)CC(O)CCc2ccc(O)cc2)ccc1O (stereo not shown) [8HDC, octahydro-demethoxycurcumin]	33.1 ± 0.8	0.49 ± 0.29	1.7 ± 0.3	2.2 ± 0.1 * ·10^−7 cm/s	0.53 ± 0.07	14.9 ± 1.9	68.7 ± 0.7 (≈ 23.8 µg/mL)	Stable ^#	0.9	6.08 ± 0.957	–	–
COc1cc(/C=C/C(O)=C/C(=O)/C=C/c2ccc(O)cc2)ccc1O [DMC, demethoxycurcumin, reference compound]	16.8 ± 0.7	0.49 ± 0.03	85.6 ± 0.5	–	–	98.3 ± 0.1	5.7 ± 0.9 (≈ 1.93 µg/mL)	22.1 ± 0.2 min	8.3	0.63 ± 0.015	1.06 ± 0.06	–
tetrahydrocurcumin [4HC]	9.8 ± 0.2	0.43 ± 0.04	–	–	–	–	–	–	–	–	–	Kinetic Solubility [6]: 70.3 ± 0.2 µM; Met.stab. in HLM t1/2 ([7]; human): 4.34 ± 0.01 min; Met.stab. in HLM Cl'int [7]: 71.8 ± 0.1 mL/min/kg; BBB-PAMPA MR (membrane retention): 34.4 ± 0.6 %; BBB-PAMPA Pe (4 h, 100 µM): 31.3 ± 1.1 ·10^−7 cm/s; GI-PAMPA Pe ([8]; 4 h, 100 µM): 30.3 ± 1.3 * ·10^−7 cm/s; GI-PAMPA MR (membrane retention) [8]: 13.3 ± 0.4 %
tetrahydro-demethoxycurcumin [4HDC]	14.2 ± 0.5	0.41 ± 0.03	12.9 ± 1.6	20.4 ± 0.3 * ·10^−7 cm/s	–	40.9 ± 1.5	–	Stable ^#	–	–	–	BBB-PAMPA Pe (BBB-PAMPA permeability; PBS pH 6.5→pH 7.4, 37 °C, 4 h): 20.7 ± 0.5 ·10^−7 cm/s; Kinetic Solubility [3]: 69.5 ± 3.1 µM; Met.stab. in HLM t1/2 [5]: 0.0722 ± 0.00033 h; Met.stab. in HLM Cl'int [5]: 72.0 ± 0.4 mL/min/kg
Curcumin [reference compound]	11.8 ± 0.1	0.32 ± 0.1	90.6 ± 0.3	5.0 ± 0.4 ·10^−7 cm/s	–	96.7 ± 0.4	–	29.7 ± 0.6 min	–	–	–	Safe human consumption amount [10]: up to 12 g/day; Kinetic Solubility [3]: 3.1 ± 0.1 µM; Met.stab. in HLM t1/2 [5]: 1.18 ± 0.085 h; Met.stab. in HLM Cl'int [5]: 4.5 ± 0.3 mL/min/kg; Major metabolite identified in the microsomal system (LC-MS) ([5]; semi-qualitative, by m/z change and retention time, Table S1): 6HC as a major metabolite
Cc1c(C)c2c(c(C)c1O)CCC(C)(C(=O)O)O2 (stereo not shown) [Trolox, reference compound]	5.6 ± 0.1	2.02 ± 0.13	–	–	–	–	–	–	–	–	–	–

Now from value to compound, other results behind:

IC50 [1] [µM]	IC50 [2] [µM]	GI-PAMPA MR (membrane retention) (GI-PAMPA permeability) [%]	GI-PAMPA Pe (GI-PAMPA permeability)	Papp at 4 h, 100 µM (BBB-PAMPA permeability) [×10⁻⁶ cm/s]	BBB-PAMPA MR (membrane retention) (BBB-PAMPA permeability; PBS pH 6.5→pH 7.4, 37 °C, 4 h) [%]	solubility kinetic at 2 h [3] [µM]	Chemical Stability Shelf-Life [4]	CLint scaled at 25 µM [5] [mL/min/kg]	half-life at 25 µM [5] [h]	Papp at 4 h, 100 µM (GI-PAMPA permeability) [×10⁻⁶ cm/s]	Compound	also measured
11.4 ± 1	0.43 ± 0.11	4.4 ± 0.2	–	0.97 ± 0.02	8.9 ± 1.4	72.9 ± 0.9 (≈ 27.4 µg/mL)	Stable ^#	1.4	3.86 ± 0.56	0.24 ± 0.01	COc1cc(CCC(O)CC(O)CCc2ccc(O)c(OC)c2)ccc1O (stereo not shown) [8HC, octahydrocurcumin]	ΔlogPoct_tol [9]: 0.75; logP at 24 h [9]: 2.3 ± 0.02; logPtol/w [9]: 1.55 ± 0.14
9.9 ± 0.9	0.39 ± 0.06	5.0 ± 0.6	–	1.25 ± 0.01	13.3 ± 0.5	74.1 ± 0.3 (≈ 27.7 µg/mL)	Stable ^#	3.3	–	0.37 ± 0.02	COc1cc(CCC(=O)CC(O)CCc2ccc(O)c(OC)c2)ccc1O (stereo not shown) [6HC, hexahydrocurcumin]	ΔlogPoct_tol [9]: 0.46; logP at 24 h [9]: 2.15 ± 0.01; logPtol/w [9]: 1.69 ± 0.03
